The subject of the assay is HCV Huh-luc/neo-ET replicon cells. Put plainly: Luciferase-Based HCV Replicon Assay (EC50 (1b)). The format is cell-based. As to conditions: 72 hours exposure, luciferase activity. On the procedure: Luciferase-Based HCV Replicon Assay Protocol (EC50 (1b))
The cell culture component of the assay was performed essentially as described by Bartenschlager et al., Hepatology 2002, 35, 694-703, wherein exponentially growing HCV Huh-luc/neo-ET replicon cells were seeded at 6×10^3 cells/well in 96 well assay plate. 24 hours later the cells were treated with various concentrations of compound in triplicate. After 72 hours exposure to the compound, the luciferase activity in the wells was determined using Bright-Glo reagent (Promega, Madison, Wis.) with a luminometer (Wallac 1420 Multilabel HTS Counter Victor 2). The background control was replicon cells treated with 100 nM BILN-2061, an inhibitor of the HCV protease. % Inhibition was determined for each compound concentration in relation to the negative (no compound) control to calculate the EC50 (1b).

pEC50: −log10 of the molar value. Where only a bound is given, the exact number is not on record here.

The pEC50 is the EC50 on a negative log10 scale, so that one unit is a factor of ten. The molecule `CS(=O)(=O)NCc1csc2c1S(=O)(=O)N=C(C1=C(O)C3C4CCC(C5CC54)C3N(Cc3ccc(F)cc3)C1=O)N2` (racemic) [Example 23, (rac-di-exo)-N-{3-[3-(4-Fluoro-benzyl)-6-hydroxy-4-oxo-3-aza-tetracyclo[6.3.2.0^2,7.0^9,11]tridec-5-en-5-yl]-1,1-dioxo-1,4-dihydro-1λ^6-thieno[2,3-e][1,2,4]thiadiazin-7-ylmethyl}-methanesulfonamide] gave a negative logarithm of the EC50 (pEC50) not below 8.30.
In turn, `CS(=O)(=O)NCc1csc2c1S(=O)(=O)N=C(C1=C(O)[C@@H]3[C@@H]4CC[C@@H](C4)[C@@H]3N(Cc3ccsc3)C1=O)N2` [Example 58, N-[3-((1S,2S,7R,8R)-6-Hydroxy-4-oxo-3-thiophen-3-ylmethyl-3-aza-tricyclo[6.2.1.0^2,7]undec-5-en-5-yl)-1,1-dioxo-1,4-dihydro-1λ^6-thieno[2,3-e][1,2,4]thiadiazin-7-ylmethyl]-methanesulfonamide] showed a negative-log EC50 (pEC50) (Hepatitis C virus) of 7.70 to 8.30.
For the setting “Hepatitis C virus”, `CS(=O)(=O)NCc1csc2c1S(=O)(=O)N=C(C1=C(O)[C@@H]3C4CCC(CC4)[C@@H]3N(Cc3ccsc3)C1=O)N2` [Example 60, N-[3-((2S,7R)-6-Hydroxy-4-oxo-3-thiophen-3-ylmethyl-3-aza-tricyclo[6.2.2.0^2,7]dodec-5-en-5-yl)-1,1-dioxo-1,4-dihydro-1λ^6-thieno[2,3-e][1,2,4]thiadiazin-7-ylmethyl]-methanesulfonamide] had a pEC50 not below 8.30.
Still for that read-out and setting: the same measure for `CS(=O)(=O)NCc1csc2c1S(=O)(=O)N=C(C1=C(O)[C@@H]3C4CCC(CC4)[C@@H]3N(Cc3ccc(F)c(Cl)c3)C1=O)N2` [Example 44, N-{3-[(2S,7R)-3-(3-Chloro-4-fluoro-benzyl)-6-hydroxy-4-oxo-3-aza-tricyclo[6.2.2.0^2,7]dodec-5-en-5-yl]-1,1-dioxo-1,4-dihydro-1λ^6-thieno[2,3-e][1,2,4]thiadiazin-7-ylmethyl}-methanesulfonamide]: not below 8.30; for `CS(=O)(=O)NCc1csc2c1S(=O)(=O)N=C(C1=C(O)C3CCCCC3N(Cc3ccc(F)cc3F)C1=O)N2` (racemic) [Example 118, (rac-cis)-N-{3-[1-(2,4-Difluoro-benzyl)-4-hydroxy-2-oxo-1,2,4a,5,6,7,8,8a-octahydro-quinolin-3-yl]-1,1-dioxo-1,4-dihydro-1λ^6-thieno[2,3-e][1,2,4]thiadiazin-7-ylmethyl}-methanesulfonamide]: 6.00 to 7.00.
On the same count and under the same terms, for `CS(=O)(=O)NCc1csc2c1S(=O)(=O)N=C(C1=C(O)C3CCCCC3N(Cc3ccc(F)cc3Cl)C1=O)N2` (racemic) [Example 117, (rac-cis)-N-{3-[1-(2-Chloro-4-fluoro-benzyl)-4-hydroxy-2-oxo-1,2,4a,5,6,7,8,8a-octahydro-quinolin-3-yl]-1,1-dioxo-1,4-dihydro-1λ^6-thieno[2,3-e][1,2,4]thiadiazin-7-ylmethyl}-methanesulfonamide] the value was 6.00 to 7.00; for `CS(=O)(=O)NCc1csc2c1S(=O)(=O)N=C(C1=C(O)C3CCCCC3N(Cc3ccc(F)cc3)C1=O)N2` (racemic) [Example 116, (rac-cis)-N-{3-[1-(4-Fluoro-benzyl)-4-hydroxy-2-oxo-1,2,4a,5,6,7,8,8a-octahydro-quinolin-3-yl]-1,1-dioxo-1,4-dihydro-1λ^6-thieno[2,3-e][1,2,4]thiadiazin-7-ylmethyl}-methanesulfonamide], 7.00 to 7.70; for `CC1(CCN2C(=O)C(C3=NS(=O)(=O)c4c(CNS(C)(=O)=O)csc4N3)=C(O)C3C4CCC(CC4)C32)CC1` (centres unmarked) [Example 109, N-(3-{6-Hydroxy-3-[2-(1-methyl-cyclopropyl)-ethyl]-4-oxo-3-aza-tricyclo[6.2.2.0^2,7]dodec-5-en-5-yl]-1,1-dioxo-1,4-dihydro-1λ^6-thieno[2,3-e][1,2,4]thiadiazin-7-ylmethyl)-methanesulfonamide], 7.70 to 8.30.
Under “Hepatitis C virus”, `Cc1cc(CN2C(=O)C(C3=NS(=O)(=O)c4c(CNS(C)(=O)=O)csc4N3)=C(O)C3CCCCCC32)ccc1F` (racemic) [Example 139, (rac-cis)-N-{3-[1-(4-Fluoro-3-methyl-benzyl)-4-hydroxy-2-oxo-2,4a,5,6,7,8,9,9a-octahydro-1H-cyclohepta[b]pyridin-3-yl]-1,1-dioxo-1,4-dihydro-1λ^6-thieno[2,3-e][1,2,4]thiadiazin-7-ylmethyl}-methanesulfonamide] gave a negative logarithm of the EC50 (pEC50) of less than 6.00.
As for `CS(=O)(=O)NCc1csc2c1S(=O)(=O)N=C(C1=C(O)C3C4CCC(C5CC54)C3N(Cc3ccc(F)cc3)C1=O)N2` (racemic) [Example 22, (rac-di-endo)-N-{3-[3-(4-Fluoro-benzyl)-6-hydroxy-4-oxo-3-aza-tetracyclo[6.3.2.0^2,7.0^9,11]tridec-5-en-5-yl]-1,1-dioxo-1,4-dihydro-1λ^6-thieno[2,3-e][1,2,4]thiadiazin-7-ylmethyl}-methanesulfonamide], the pEC50 (Hepatitis C virus) was not below 8.30.
As to `CC(C)CCN1C(=O)C(C2=NS(=O)(=O)c3c(CNS(C)(=O)=O)csc3N2)=C(O)[C@@H]2[C@H]3CC[C@H](C3)[C@@H]21` [Example 68, N-{3-[(1R,2S,7R,8S)-6-Hydroxy-3-(3-methyl-butyl)-4-oxo-3-aza-tricyclo[6.2.1.0^2,7]undec-5-en-5-yl]-1,1-dioxo-1,4-dihydro-1λ^6-thieno[2,3-e][1,2,4]thiadiazin-7-ylmethyl}-methanesulfonamide], the pEC50 (Hepatitis C virus) was 7.70 to 8.30.
`CC(C)C1CC(O)=C(C2=NS(=O)(=O)c3c(CNS(C)(=O)=O)csc3N2)C(=O)N1Cc1ccc(F)cc1` (racemic) [Example 8, rac-N-{3-[1-(4-Fluoro-benzyl)-4-hydroxy-6-isopropyl-2-oxo-1,2,5,6-tetrahydro-pyridin-3-yl]-1,1-dioxo-1,4-dihydro-1λ^6-thieno[2,3-e][1,2,4]thiadiazin-7-ylmethyl}-methanesulfonamide]: the pEC50 (Hepatitis C virus) was 7.00 to 7.70.
The molecule `CCC1CN(Cc2ccc(F)cc2)C(=O)C(C2=NS(=O)(=O)c3c(CNS(C)(=O)=O)csc3N2)=C1O` (racemic) [Example 18, rac-N-{3-[5-Ethyl-1-(4-fluoro-benzyl)-4-hydroxy-2-oxo-1,2,5,6-tetrahydro-pyridin-3-yl]-1,1-dioxo-1,4-dihydro-1λ^6-thieno[2,3-e][1,2,4]thiadiazin-7-ylmethyl}-methanesulfonamide] had a pEC50 (Hepatitis C virus) of 6.00 to 7.00.
Where the note is “Hepatitis C virus”, `CS(=O)(=O)NCc1csc2c1S(=O)(=O)N=C(C1=C(O)[C@@H]3[C@H]4CC[C@H](C4)[C@@H]3N(Cc3ccccc3)C1=O)N2` [Example 50, N-[3-((1R,2S,7R,8S)-3-Benzyl-6-hydroxy-4-oxo-3-aza-tricyclo[6.2.1.0^2,7]undec-5-en-5-yl)-1,1-dioxo-1,4-dihydro-1λ^6-thieno[2,3-e][1,2,4]thiadiazin-7-ylmethyl]-methanesulfonamide] showed a negative-log EC50 (pEC50) not below 8.30.
The same measure, in the same setting: the same measure for `CS(=O)(=O)NCc1csc2c1S(=O)(=O)N=C(C1=C(O)CC(C3CCCC3)N(Cc3ccc(F)cc3)C1=O)N2` (racemic) [Example 9, rac-N-{3-[6-Cyclopentyl-1-(4-fluoro-benzyl)-4-hydroxy-2-oxo-1,2,5,6-tetrahydro-pyridin-3-yl]-1,1-dioxo-1,4-dihydro-1λ^6-thieno[2,3-e][1,2,4]thiadiazin-7-ylmethyl}-methanesulfonamide]: 6.00 to 7.00; for `CS(=O)(=O)NCc1csc2c1S(=O)(=O)N=C(C1=C(O)C3CCCCC3N(CC3CCCCC3)C1=O)N2` (racemic) [Example 104, (rac-cis)-N-[3-(1-Cyclohexylmethyl-4-hydroxy-2-oxo-1,2,4a,5,6,7,8,8a-octahydro-quinolin-3-yl)-1,1-dioxo-1,4-dihydro-1λ^6-thieno[2,3-e][1,2,4]thiadiazin-7-ylmethyl]-methanesulfonamide]: 6.00 to 7.00; for `CCCC1CN(Cc2ccc(F)cc2)C(=O)C(C2=NS(=O)(=O)c3c(CNS(C)(=O)=O)csc3N2)=C1O` (racemic) [Example 15, rac-N-{3-[1-(4-Fluoro-benzyl)-4-hydroxy-2-oxo-5-propyl-1,2,5,6-tetrahydro-pyridin-3-yl]-1,1-dioxo-1,4-dihydro-1λ^6-thieno[2,3-e][1,2,4]thiadiazin-7-ylmethyl}-methanesulfonamide]: 6.00 to 7.00.
Consider `CS(=O)(=O)NCc1csc2c1S(=O)(=O)N=C(C1=C(O)[C@@H]3[C@@H]4CC[C@@H](C4)[C@@H]3N(Cc3cc(F)c(F)c(F)c3)C1=O)N2` [Example 57, N-{3-[(1S,2S,7R,8R)-6-Hydroxy-4-oxo-3-(3,4,5-trifluoro-benzyl)-3-aza-tricyclo[6.2.1.0^2,7]undec-5-en-5-yl]-1,1-dioxo-1,4-dihydro-1λ^6-thieno[2,3-e][1,2,4]thiadiazin-7-ylmethyl}-methanesulfonamide], for which the negative logarithm of the EC50 (pEC50) (Hepatitis C virus) is 7.70 to 8.30.
On the same count and under the same terms, the same measure for `CS(=O)(=O)NCc1csc2c1S(=O)(=O)N=C(C1=C(O)C3C4C=CC(C4)C3N(Cc3ccc(F)cc3)C1=O)N2` (racemic) [Example 47, (rac-di-exo)-N-{3-[3-(4-Fluoro-benzyl)-6-hydroxy-4-oxo-3-aza-tricyclo[6.2.1.0^2,7]undeca-5,9-dien-5-yl]-1,1-dioxo-1,4-dihydro-1λ^6-thieno[2,3-e][1,2,4]thiadiazin-7-ylmethyl}-methanesulfonamide]: not below 8.30; for `CS(=O)(=O)NCc1csc2c1S(=O)(=O)N=C(C1=C(O)[C@@H]3[C@H]4CC[C@H](C4)[C@@H]3N(CCC3CCCC3)C1=O)N2` [Example 30, N-{3-[(1R,2S,7R,8S)-3-(2-Cyclopentyl-ethyl)-6-hydroxy-4-oxo-3-aza-tricyclo[6.2.1.0^2,7]undec-5-en-5-yl]-1,1-dioxo-1,4-dihydro-1λ^6-thieno[2,3-e][1,2,4]thiadiazin-7-ylmethyl}-methanesulfonamide]: 7.00 to 7.70.

The values are drawn from patent publication US8222404B2, “[1,2,4]Thiadiazin-3-yl acetic acid compound and methods of making the acetic acid compound” (Anadys Pharmaceuticals, Inc., priority 2008, dated 2012).
